The source of these data is patent US12180235B1, “Fabrication of novel nano-sized [4{3,4-bis-[(5-bromo-2-hydroxy-benzylidene)-amino]-phenyl }-phenyl-methanone] Ru(III) complex for pharmaceutical applications” (KING FAISAL UNIVERSITY, priority 2024, dated 2024).

≈ marks a conversion by molar mass, not a printed value. Where two headings read alike, the source gives them in different places.

Holding throughout (assay type): cell-based
Experiment [1] has as its system Aspergillus Flavus. Put plainly: Antifungal screening, well diffusion method. To be noted: 35° C. for 7 days. The procedure:
Antifungal activities of the prepared nano-complex were studied against three fungal cultures using well diffusion method. The tested fungi were inoculated in Sabouraud dextrose broth medium (Hi-Media Mumbai) and incubated at 35° C. for 72 h and subsequently a suspension of about 1.60×10^4-6.00×10^4 c.f.u/ml was introduced agar plates and a sterile glass spreader was used for even distribution of the inoculum. The discs measuring 6 mm in diameter were prepared from Whatman No. 1 filter paper and sterilized by dry heat at 140° C. for 1 h. The sterile discs previously soaked in known concentration of the tested compounds were placed in Sabouraud dextrose Agar (SDA) plates. The plates were inverted and incubated at 35° C. for 7 days. The susceptibility was assessed on the basis of diameter of inhibition against albicans and non-albicans strain of fungi.
In general terms: A growth-free zone around the sample is the usual read-out of agar diffusion tests.

The test system of experiment [2] is Aspergillus Flavus. The experiment in a line: Minimum inhibitory concentration, serial broth dilution (fungus). The procedure:
(§1) Minimum inhibitory concentrations (MICs) are defined as the lowest concentration of an antimicrobial that will inhibit the visible growth of a microorganism after overnight incubation. MICs are used by diagnostic laboratories mainly to confirm resistance of microorganism to antimicrobial agents and also to monitor the activity of new antimicrobial agents. MIC was determined in vitro in liquid medium by serial broth dilution method.

The test system of experiment [3] is Pseudomonas aeruginosa. The experiment in a line: Minimum inhibitory concentration, serial broth dilution (bacteria). As to the method:
as §1
For orientation: In broth dilution the organism is exposed to a series of concentrations in liquid medium.

In experiment [4] the test system is Pseudomonas aeruginosa. The experiment in a line: Antibacterial screening, agar well diffusion method. To be noted: 24 hours at 37° C. The procedure:
The susceptibilities of such growth rate of microorganisms were measured in vitro by agar well diffusion method. The tested nano complex was dissolved in dimethylsulfoxide at different concentrations (10 and 20 mg/ml). 1 cm^3 of a 24 h broth culture containing 10^6 CFU/cm^3 was placed in sterile Petri-dishes. Molten nutrient agar (15 cm^3) maintained at 45° C. was then poured into the Petri-dishes and allowed to solidify. Then holes of 6 mm diameter were formed in the agar using a sterile cork borer and these holes were completely filled with the test solutions. The plates were incubated for 24 hours at 37° C. After the incubation period, the zone of inhibition of each well was determined by measuring the zones of growth inhibition (mm) against the test microorganisms with zone reader (Hi Antibiotic zone scale). […] The measurements were made in triplicate for each compound and their average values are reported.

The test system of the next experiment is Colon cancer cells line. The experiment in a line: Cytotoxic activity, Sulfo-Rhodamine-B-stain (SRB) assay. To be noted: colon cancer cell line, 48 hrs. The procedure:
The anticancer activity was made at the National Cancer Institute, Cancer Biology Department, Pharmacology Department, Cairo University. The absorbance or optical density (O.D.) of each well was measured spectrophotometrically at 564 (nm) with an “ELIZA” micro plate reader (Meter tech. Σ 960, “USA”). Evaluation of the cytotoxic activity of the prepared nano-complex was carried out against Colon cancer cells line. The evaluation process was carried out in vitro using the Sulfo-Rhodamine-B-stain (SRB). Cells were placed in 96-multiwell plate (10^4 cells/well) for 24 hrs before processing with the complexes to allow attachment of cell to the wall of the plate. Various concentrations of the compounds under test in DMSO (0, 1, 2.5, 5 and 10 µM) were added to the cell monolayer. Monolayer cells were incubated with the complexes for 48 hrs at 37° C. and in atmosphere of 5% CO2. After 48 hrs, cells were fixed, rinsed, and stained with Sulfo-Rhodamine-B-stain. Excess stain was washed with acetic acid and attached stain was treated with Tris EDTA buffer. Color intensity was measured in an ELISA reader. IC50 was evaluated and potency was calculated with regard to percentage of change of (vistabline standard). The relation between surviving fraction and compound concentration is plotted to get the survival curve of each tumor cell line after the specified compound. […]

In the experiment with Aspergillus Flavus [1], `OC(Cn1cncn1)(Cn1cncn1)c1ccc(F)cc1F` [Flucazanol] returned an inhibition zone of 27 mm. In the experiment with Aspergillus Flavus [2], this molecule yielded an MIC of 2.50 µg/mL (≈ 8.16 µM).
Consider `CC1COc2c(N3CCN(C)CC3)c(F)cc3c(=O)c(C(=O)O)cn1c23` (stereo not drawn) [Ofloxacin], for which the MIC in the experiment on Pseudomonas aeruginosa [3] (read-out: MIC) stood at 2.25 µg/mL (≈ 6.23 µM). In the experiment with Pseudomonas aeruginosa [4], this molecule yielded an inhibition zone of 38 mm.
In turn, `CC[C@]1(O)C[C@@H]2CN(CCc3c([nH]c4ccccc34)[C@@](C(=O)OC)(c3cc4c(cc3OC)N(C)[C@H]3[C@@](O)(C(=O)OC)[C@H](OC(C)=O)[C@]5(CC)C=CCN6CC[C@]43[C@@H]65)C2)C1` [vinblastine] came in with an IC50 in the experiment with Colon cancer cells line of 5.7 µM.
Consider “[4{3,4-bis-[(5-bromo-2-hydroxy-benzylidene)-amino]-phenyl}-phenyl-methanone] Ru(III) complex [prepared nano complex]”, for which the MIC stood at 1.5 µg/mL in the experiment on Pseudomonas aeruginosa [3] and 2.00 µg/mL against Aspergillus Flavus [2]. In addition, the inhibition zone in the experiment on Pseudomonas aeruginosa [4] is listed as 42 mm; in the experiment with Aspergillus Flavus [1], 30 mm.

One may read the MIC as the smallest concentration in the dilution series that meets the test's criterion for growth inhibition. One may read the IC50 as the concentration needed to halve the response being measured. The low end stands for higher potency, the high end for lower potency.
